This is an account of results in patent publication EP0477871A2, “Antiviral composition, containing guanine derivatives” (NIPPON KAYAKU KABUSHIKI KAISHA, priority 1990, dated 1992).

One experiment relates to HSV-1 (VR-3). Put plainly: Plaque inhibition (growth inhibition) in vero cell monolayer, HSV-1. In kind it is cell-based, herpes simplex virus 1 (HSV-1). Conditions: for IC50: Human alphaherpesvirus 1, Vero, compound alone, read-out: Concentraten at 50% plaque inhibition (IC50), single compound. As to the method: (§1) A monolayer culture of Cercopithecus sabaeus renal cells (vero cells) was prepared in Eagle's minimum medium containing 10% of newborn calf serum (MEM-CS10) by using a 24-well microplate. Then the medium was inoculated with 50 PFU/0.1 ml/well of herpes simplex virus 1 (HSV-1) or 2 (HSV-2). After effecting adsorption at 37°C for 1 hour, the cells in each well were washed with a phosphate buffer solution (PBS). Next, 0.5% methylcellulose-containing MEM-CS2 containing stepwise diluted OXT-G, ACV or C-OXT-G alone, a combination of OXT-G and ACV, a combination of OXT-G and C-OXT-G or a combination of ACV and C-OXT-G was laminated thereon and incubated at 37°C for 2 days. After discarding the laminated medium and fixing the cells with […], the cells were stained with a Crystal Purple solution and plaques formed in each well were counted. Then the ratio (%) of the plaque count at each concentration to that of the control lot, to which no chemical was added, was determined to thereby give the 50% plaque inhibition concentration (IC₅₀). Thus the inhibitory rate (%) against the concentration of each compound was calculated.

The next experiment relates to HSV-2 (VW-268). Kind of experiment: Plaque inhibition (growth inhibition) in vero cell monolayer, HSV-2. The experiment is classed as cell-based, herpes simplex virus 2 (HSV-2). Conditions: for IC50: Human alphaherpesvirus 2, Vero, compound alone, read-out: Concentraten at 50% plaque inhibition (IC50), single compound. As to the method:
as §1

Where two headings read alike, the source gives them in different places.

A word on the IC50: it is the concentration that gives 50% inhibition. In the case of `Nc1nc2c(ncn2COCCO)c(=O)[nH]1` [ACV, 9-(2-hydroxyethoxymethyl)guanine, reference compound], the “ACV inhibitory rate (single compound at the same concn., theoretical)” value in the experiment on HSV-1 (VR-3) (ACV alone 0.04 μg/mℓ) is “(2%)”; in the experiment on HSV-1 (VR-3) (ACV alone 0.08 μg/mℓ) it was “(3%)”; with HSV-1 (VR-3) (ACV alone 0.32 μg/mℓ), “(12%)”; in the experiment on HSV-1 (VR-3) (ACV alone 0.42 μg/mℓ) it was “(15%)”; in the experiment with HSV-2 (VW-268) (ACV alone 0.1 μg/mℓ), “(2%)”; in the experiment on HSV-2 (VW-268) (ACV alone 0.4 μg/mℓ), “(8%)”. Further, the “ACV inhibitory rate (single compound at the same concn., theoretical)” value with HSV-2 (VW-268) (ACV alone 1.3 μg/mℓ) is “(19%)”; with HSV-2 (VW-268) (ACV alone 1.5 μg/mℓ), “(30%)”; in the experiment on HSV-2 (VW-268) (ACV alone 1.8 μg/mℓ), “(36%)”; with HSV-2 (VW-268) (ACV alone 1.9 μg/mℓ), “(28%)”; in the experiment on HSV-2 (VW-268) (ACV alone 2.7 μg/mℓ), “(40%)”. Further, the “ACV inhibitin rate (single compound at the same concn., theoretical)” value with HSV-1 (VR-3) (ACV alone 0.1 μg/mℓ) was “(6%)”; in the experiment with HSV-1 (VR-3) (ACV alone 0.58 μg/mℓ), “(37%)”. The ACV inhibitin rate in the experiment on HSV-1 (VR-3) (ACV alone 0.78 μg/mℓ) turned out to be 50%. Besides, the ACV inhibitory rate with HSV-1 (VR-3) (ACV alone 1.4 μg/mℓ), with HSV-2 (VW-268) (ACV alone 2.5 μg/mℓ) and in the experiment with HSV-2 (VW-268) (ACV alone 3.4 μg/mℓ) was 50% each time. Besides, the IC50 with HSV-1 (VR-3) (C-OXT-G/ACV series) came out at 0.78 µg/mL; in the experiment with HSV-1 (VR-3) (OXT-G/ACV series) it was 1.4 µg/mL; in the experiment with HSV-2 (VW-268) (C-OXT-G/ACV series), 2.5 µg/mL; in the experiment with HSV-2 (VW-268) (OXT-G/ACV series) it was 3.4 µg/mL.
Take `Nc1nc2c(ncn2[C@@H]2C[C@H](CO)[C@H]2CO)c(=O)[nH]1` [C-OXT-G, (+)-9-[(1R,2R,3S)-2,3-bis(hydroxymethyl)cyclobutyl]guanine]: the “C-OXT-G inhibitory rate (single compound at the same concn., theoretical)” value in the experiment on HSV-1 (VR-3) (C-OXT-G alone 0.01 μg/mℓ) was “(2%)”; with HSV-1 (VR-3) (C-OXT-G alone 0.04 μg/mℓ), “(3%)”; in the experiment with HSV-1 (VR-3) (C-OXT-G alone 0.1 μg/mℓ), “(8%)”; with HSV-1 (VR-3) (C-OXT-G alone 0.2 μg/mℓ) it was “(33%)”; with HSV-1 (VR-3) (C-OXT-G alone 0.4 μg/mℓ) it was “(33.3%)”; in the experiment on HSV-2 (VW-268) (C-OXT-G alone 0.04 μg/mℓ), “(3%)”. For the same molecule, the “C-OXT-G inhibitory rate (single compound at the same concn., theoretical)” value in the experiment with HSV-2 (VW-268) (C-OXT-G alone 0.1 μg/mℓ) was “(7%)”; with HSV-2 (VW-268) (C-OXT-G alone 0.3 μg/mℓ), “(20%)”; in the experiment on HSV-2 (VW-268) (C-OXT-G alone 0.54 μg/mℓ) it was “(36%)”. Besides, the C-OXT-G inhibitory rate with HSV-1 (VR-3) (C-OXT-G alone 0.3 μg/mℓ), with HSV-1 (VR-3) (C-OXT-G alone 0.60 μg/mℓ) and in the experiment with HSV-2 (VW-268) (C-OXT-G alone 0.74 μg/mℓ) was 50% in each case. Further, the results for the concentration for half-maximal inhibition (IC50) in the experiment with HSV-1 (VR-3) (C-OXT-G/ACV series), in the experiment on HSV-1 (VR-3) (OXT-G/C-OXT-G series) and in the experiment with HSV-2 (VW-268) (C-OXT-G/ACV series) were 0.3 µg/mL, 0.6 µg/mL and 0.74 µg/mL, respectively.
In the case of `Nc1nc2c(ncn2[C@@H]2O[C@H](CO)[C@H]2CO)c(=O)[nH]1` [OXT-G, 9-(2-deoxy-2-hydroxymethyl-β-D-erythrooxetanosyl)guanine], the 50% inhibitory concentration (IC50) in the experiment on HSV-1 (VR-3) (OXT-G/ACV series) stood at 7 µg/mL; in the experiment with HSV-1 (VR-3) (OXT-G/C-OXT-G series), 7.3 µg/mL; in the experiment on HSV-2 (VW-268) (OXT-G/ACV series) it was 10 µg/mL. The “OXT-G inhibitory rate (single compound at the same concn., theoretical)” value is “(1%)” with HSV-1 (VR-3) (OXT-G alone 0.1 μg/mℓ); “(3%)” in the experiment on HSV-1 (VR-3) (OXT-G alone 0.4 μg/mℓ); “(7%)” in the experiment with HSV-1 (VR-3) (OXT-G alone 1.0 μg/mℓ); “(12%)” with HSV-1 (VR-3) (OXT-G alone 1.7 μg/mℓ); “(26%)” in the experiment with HSV-1 (VR-3) (OXT-G alone 3.0 μg/mℓ); “(29%)” with HSV-1 (VR-3) (OXT-G alone 4.0 μg/mℓ). Also, the “OXT-G inhibitory rate (single compound at the same concn., theoretical)” value is “(39%)” with HSV-1 (VR-3) (OXT-G alone 5.4 μg/mℓ), “(2%)” in the experiment on HSV-2 (VW-268) (OXT-G alone 0.4 μg/mℓ), “(5%)” with HSV-2 (VW-268) (OXT-G alone 1.0 μg/mℓ) and “(20%)” in the experiment on HSV-2 (VW-268) (OXT-G alone 4.0 μg/mℓ). Moreover, the OXT-G inhibitory rate in the experiment on HSV-1 (VR-3) (OXT-G alone 7.0 μg/mℓ) is given as 50%; in the experiment with HSV-1 (VR-3) (OXT-G alone 7.3 μg/mℓ), 50%; in the experiment on HSV-2 (VW-268) (OXT-G alone 10.0 μg/mℓ), “(50%)”.
